Test results published in patent publication US20100062464A1, “OXIDATIVE CHROMOGENIC COMPOUND OR SALT THEREOF AND PRODUCTION METHOD THEREOF, AND REAGENT COMPOSITION AND TEST INSTRUMENT USING THE SAME” (Terumo Kabushiki Kaisha, priority 2007, published 2010).

Legend:
[1] = Residual ratio of coupler in test piece after thermal acceleration, HPLC (Example 9); format: physicochemical; conditions: 60° C., 1 hour, oven under vacuum; relative to test piece before thermal acceleration; HPLC 254 nm; FIG. 5
Experimental: Using a coating liquid having a composition shown in the following Table 6, a polyether sulfone membrane (membrane thickness: 130 μm) manufactured by Terumo Corporation was coated by Kiss-Coat method, and dried for 18 hours at 37° C. Then, the membrane was punched out to give a circle of φ6 mm as a test piece.
The test piece was placed in an oven under vacuum at 60° C. for 1 hour to be subjected to thermal acceleration. Then, the test piece was subjected to ultrasonic treatment for 10 minutes using 1 ml of an aqueous 60% acetonitrile solution, and extracted. The amount of reagent in the resultant extract was determined by HPLC under such conditions as of eluent: 60% of acetonitrile/50 mM of phosphate buffer (pH 7.5), eluent flow rate: 1 mL/minute, column temperature: 40° C., column: Hydrosphere C18 250×4.6 mm (manufactured by YMC Co., Ltd.), measuring wavelength: 254 nm, and injection volume: 20 μL. According to this method, the residual ratios of 4-AA and CP2 contained in the test piece after thermal acceleration were respectively compared with those of the test pieces before thermal acceleration. It is noted from the results shown in FIG. 5 that the residual ratio of 4-AA is not more than 70%, while the residual ratio of CP2 is approximately 100%. […]

[2] = Time-dependent change in reflection-absorbance of test piece (Example 7); conditions: test piece with MAOS, succinate buffer pH 5.0; human blood, hematocrit 40%, 400 mg/dL blood glucose; FIG. 3
Experimental: Using a coating liquid having a composition shown in the following Table 5, a polyether sulfone membrane (membrane thickness: 130 μm) manufactured by Terumo Corporation was coated by Kiss-Coat method, and dried for 18 hours at 37° C. Then, the membrane was cut to give a 1-cm square as a test piece.
The evaluation using blood was conducted by fixing the test piece in a reflectance spectrophotometer, adding 1 μL of specimen dropwise onto the test membrane from above, and measuring reflection-absorbance continuously or at the predetermined time.
The time-dependent changes in the reflection-absorbance was measured using as a coupler compound 4-amino antyprine (4-AA), CP1 or CP2, the test piece prepared by the above method, and human blood adjusted to 40% of hematocrit level and 400 mg/dL of blood glucose level as specimen. It is noted from the results shown in FIG. 3 that 15 seconds was required for reflection-absorbance to become steady when using 4-AA, a conventional coupler, while less than 5 seconds was required for reflection-absorbance to become steady when using CP1, and particularly when using CP2, reflection-absorbance reached peak within only about 3 seconds. That is, it was observed that a measuring time was able to be shortened by using the reagent composition of the present invention.

[3] = Maximum concentration of coating liquid for measuring glucose (solubility of coupler)
Experimental: As an example of a coating liquid composition for measuring glucose, an experiment was conducted to determine a maximum concentration of a coating liquid.
Basic Composition (in 100 mL Water)

| Solubility as compared with 4-aminoantipyrine [3] | Solubility of coupler ([3]; pH 5) | Structure (SMILES) | Residual ratio in test piece after thermal acceleration [1] | Time required for reflection-absorbance to become steady / reach peak [2] | Solubility of coupler ([3]; how many times the amounts of all reagents of the basic composition (100 mL water, TOOS, Triton X-100, citrate pH 5.0) can be increased and still give a uniform solution, coupler equimolar to 4-AA) |
| --- | --- | --- | --- | --- | --- |
|  |  | Cc1c(N)c(=O)n(-c2ccccc2)n1C [4-AA, 4-aminoantipyrine, reference compound] | not more than 70% | 15 s | 5 times by volume |
| high solubility | 10 times by volume | Cc1c(N)c(=O)n(-c2ccc(S(=O)(=O)O)cc2)n1C [CP2, 4-amino-1-(4-sulfophenyl)-2,3-dimethyl-5-pyrazolone] | approximately 100% | about 3 seconds |  |
| high solubility | 10 times by volume | Cc1c(N)c(=O)n(-c2cccc(S(=O)(=O)O)c2)n1C [CP6, 4-amino-1-(3-sulfophenyl)-2,3-dimethyl-5-pyrazolone] |  |  |  |
| high solubility | 8 times by volume | Cc1c(N)c(=O)n(-c2ccc(C(=O)O)cc2)n1C [CP1, 4-amino-1-(4-carboxyphenyl)-2,3-dimethyl-5-pyrazolone] |  | less than 5 seconds |  |
